# Measurements reported in patent US7199136B2, “1,4-dihydro-1,4-diphenylpyridine derivatives” (Bayer HealthCare AG, priority 2001, dated 2007).
# Test system: human polymorphonuclear cells (PMNs)
# Experiment: In vitro PMN elastolysis assay (tritiated elastin)
# Type: cell-based
# Settings: at 1.2 μM; n=3 different donors at 3.6×10^5 cells per well; 4 hours at 37° C.
# Procedure: II. In Vitro PMN Elastolysis Assay
# This assay is used to determine the elastolytic potential of human polymorphonuclear cells (PMNs) and assess the proportion of degradation due to neutrophil elastase [cf. Z. W. She et al., Am. J. Respir. Cell. Mol. Biol. 9, 386–392 (1993)].
# Tritiated elastin, in suspension, is coated on to a 96 well plate at 10 μg per well. Test and reference [ZD-0892 (J. Med. Chem. 40, 1876–1885, 3173–3181 (1997), WO 95/21855) and α1 protease inhibitor (α1PI)] compounds are added to the wells at the appropriate concentrations. Human PMNs are separated from peripheral venous blood of healthy donors and resuspended in culture media. […] Porcine pancreatic elastase (1.3 μM is used as a positive control for the assay, and α1PI (1.2 μM) is used as the positive inhibitor of neutrophil elastase. The cellular control is PMNs without compound at each appropriate cell density. The cells plus compounds are incubated in a humidified incubator at 37° C. for 4 hours. The plates are centrifuged to allow the harvest of cell supernatant only. The supernatant is transferred in 75 μl volumes to corresponding wells of a 96 well Lumaplate™ (solid scintillant containing plates). The plates are dried until no liquid is visible in the wells and read in a beta counter for 3 minutes per well. […]
row,Molecule,inhibition of 3H-elastin elastolysis (mean±s.e.m.)
1,"α1PI: α1 protease inhibitor, used as the positive inhibitor of neutrophil elastase",83.46±3.97%

# Same assay, conditions: n=2 different donors at 3.6×10^5 cells per well; read-out: IC50 (mean±s.e.m.) of elastolysis inhibition
row,IC50,Molecule
1,45.5 ± 7.75 nM,"COc1ccc(C(=O)N[C@H](C(=O)N2CCC[C@H]2C(=O)N[C@H](C(=O)C(F)(F)F)C(C)C)C(C)C)cc1 [ZD-0892, reference compound]"

# Biological target: T1, human neutrophil elastase (HNE) (Homo sapiens, UniProt P08246)
# T1 construct: purchased SERVA Electrophoresis GmbH, Heidelberg, Germany #20927.01
# T1 sequence (P08246 30-267): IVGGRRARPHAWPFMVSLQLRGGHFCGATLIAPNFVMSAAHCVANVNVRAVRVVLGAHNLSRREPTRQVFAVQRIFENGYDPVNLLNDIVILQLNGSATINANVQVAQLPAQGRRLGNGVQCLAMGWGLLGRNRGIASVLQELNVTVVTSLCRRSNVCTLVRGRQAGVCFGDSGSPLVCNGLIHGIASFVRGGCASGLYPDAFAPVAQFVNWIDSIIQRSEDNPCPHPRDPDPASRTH
# Experiment: In vitro inhibition of HNE using a fluorogenic peptide substrate (MeOSuc-Ala-Ala-Pro-Val-AMC), 384 MTP format
# Type: biochemical
# Settings: 37° C.
# Procedure: I. In Vitro Assays of Human Neutrophil Elastase (HNE)
# The test solution is prepared by mixing 10 μl of test compound dilution, 20 μl of HNE enzyme dilution (final concentration 8–0.4 μU/ml, routinely 2.1 μU/ml) and 20 μl of substrate dilution (final concentration 1 mM–1 μM, routinely 20 μM), respectively. The solution is incubated for 0–2 hrs at 37° C. (routinely one hour). The fluorescence of the liberated AMC due to the enzymatic reaction is measured at 37° C. (TECAN spectra fluor plus plate reader). […] IC50 values are determined by RFU-versus-[I] plots. Km and Km(app.) values are determined by Lineweaver-Burk plots and converted to Ki values by Dixon plots.
row,IC50,Molecule
1,9000 nM,"CCOC(=O)C1=C(N)N(c2cccc(CN(CC)CC)c2)C(C)=C(C(C)=O)C1c1ccc(C#N)cc1 (stereo not shown) [Example 17, Ethyl 5-acetyl-2-amino-4-(4-cyanophenyl)-1-{3-[(diethylamino)methyl]phenyl}-6-methyl-1,4-dihydro-3-pyridinecarboxylate]"
2,230 nM,"CCOC(=O)C1=C(C)N(c2cccc(C(F)(F)F)c2)C(C)=C(C(C)=O)C1c1ccc(C#N)cc1 (racemic) [Example 10, (±)-Ethyl 5-acetyl-4-(4-cyanophenyl)-2,6-dimethyl-1-[3-(trifluoromethyl)phenyl]-1,4-dihydro-3-pyridinecarboxylate]"
3,30 nM,"CCOC(=O)C1=C(N)N(c2cc(OC)cc(C(F)(F)F)c2)C(C)=C(C(C)=O)C1c1ccc(C#N)cc1 (stereo not shown) [Example 18, Ethyl 5-acetyl-2-amino-4-(4-cyanophenyl)-1-[3-methoxy-5-(trifluoromethyl)phenyl]-6-methyl-1,4-dihydro-3-pyridinecarboxylate]"
4,330 nM,"CCOC(=O)C1=CN(c2cccc(C(F)(F)F)c2)C(C)=C(C(C)=O)C1c1ccc(C#N)cc1 (racemic) [Example 8, (±)-Ethyl 5-acetyl-4-(4-cyanophenyl)-6-methyl-1-[3-(trifluoromethyl)phenyl]-1,4-dihydro-3-pyridinecarboxylate]"
5,30 nM,"CC(=O)C1=C(C)N(c2cccc(C(F)(F)F)c2)C(N)=C(C(N)=O)C1c1ccc(C#N)cc1 (stereo not shown) [Example 13, 5-Acetyl-2-amino-4-(4-cyanophenyl)-6-methyl-1-[3-(trifluoromethyl)phenyl]-1,4-dihydro-3-pyridinecarboxamide]"
6,120 nM,"CC(=O)C1=C(C)N(c2cccc(C(F)(F)F)c2)C(N)=C(C#N)C1c1ccc(C#N)cc1 (stereo not shown) [Example 15, 5-Acetyl-2-amino-4-(4-cyanophenyl)-6-methyl-1-[3-(trifluoromethyl)phenyl]-1,4-dihydro-3-pyridinecarbonitrile]"
7,20 nM,"CC(=O)C1=C(C)N(c2cccc(C(F)(F)F)c2)C(=N)C(C(=O)N(C)C)C1c1ccc(C#N)cc1 (stereo not shown) [Example 14, 5-Acetyl-4-(4-cyanophenyl)-2-imino-N,N,6-trimethyl-1-[3-(trifluoromethyl)phenyl]-1,2,3,4-tetrahydro-3-pyridinecarboxamide]"
8,180 nM,"CCOC(=O)C1=C(N)N(c2cccc(C)c2)C(C)=C(C(C)=O)C1c1ccc(C#N)cc1 (stereo not shown) [Example 12, Ethyl 5-acetyl-2-amino-4-(4-cyanophenyl)-6-methyl-1-[3-methylphenyl]-1,4-di-hydro-3-pyridinecarboxylate]"
